# In PubChem BioAssay (NCI):
#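 Method: 48-hour compound exposure of cells in 96-well plates, five concentrations, linear interpolation of endpoints. TGI: concentration producing complete growth inhibition.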
# Legend:
# Test in all cases: NCI anticancer screen, dose series, 48 h
# BT-549 breast = test system: BT-549 breast
# UACC-257 melanoma = test system: UACC-257 melanoma
# SK-MEL-2 melanoma = test system: SK-MEL-2 melanoma
# MDA-MB-435 = test system: MDA-MB-435
# HS 578T breast = test system: HS 578T breast
# HOP-92 NSCLC = test system: HOP-92 NSCLC
# A549 NSCLC = test system: A549 NSCLC
# K-562 leukemia = test system: K-562 leukemia
# OVCAR-8 ovarian = test system: OVCAR-8 ovarian
# SW-620 colon = test system: SW-620 colon
Structure (SMILES),TGI (BT-549 breast) [µM],TGI (UACC-257 melanoma) [µM],TGI (SK-MEL-2 melanoma) [µM],TGI (MDA-MB-435) [µM],TGI (HS 578T breast) [µM],TGI (HOP-92 NSCLC) [µM],TGI (A549 NSCLC) [µM],TGI (K-562 leukemia) [µM],TGI (OVCAR-8 ovarian) [µM],TGI (SW-620 colon) [µM]
O=C(O)CN(CCNC(=O)OCC1c2ccccc2-c2ccccc21)CCNC(=O)OCC1c2ccccc2-c2ccccc21,67.4,68.8,46.6,34.4,> 100,42.7,49.1,39.9,37.2,42.3
Cc1nnc2n1N=C(c1cc(F)c(Cl)cc1Cl)/C(=C/c1ccc(Cl)cc1)S2,49,44.6,26.2,29.1,> 100,60.1,99.6,> 100,> 100,> 100
